Reference: publication PMC6602958, “Pharmacokinetics of anti-infectious reagents in silkworms” (Scientific Reports, 2019)
In brackets after ≈: the same amount, converted by molar mass. Read-outs that look alike come from different tables or passages of the source.

Key:
Candida albicans [1] = test: Silkworm infection model with Candida albicans (ED50); assay type: in vivo, Bombyx mori (silkworm); details: silkworm infection model with Candida albicans
Candida albicans [2] = test: Antifungal activity (MIC) by micro dilution with or without silkworm hemolymph; assay type: cell-based
Procedure: Antimicrobial and antifungal activities of each compound were measured by a micro dilution method[19],[20]. To measure protein binding to antifungal activity, silkworm hemolymph was collected by cutting the pseudopodium using scissors, and centrifuged at 3000 rpm for 5 min at 4 °C.

[3] = human serum; ref Schafer-Korting et al. 27; cited from earlier work
[4] = Protein-binding capacity in silkworm hemolymph (filter unit, HPLC)
cytochrome P450 [5] = test: Decay of cytochrome P450 substrates in in vitro culture of the silkworm midgut (HPLC); details: for HPLC peak area of substrate, Sample 1 / HPLC peak area of substrate, Sample 2: midgut culture, raw data of Fig. 3
Procedure: Silkworm midgut was incubated in medium with cytochrome P450 substrates at 30 °C. The samples were collected, extracted by acetone, and evaporated. The amounts of substrates were determined by HPLC analysis.
Silkworms (5th instar, 5 days) were dissected in a buffer (10 mM HEPES/NaOH, 0.9% NaCl, pH 7.9), and isolated organs were incubated with 3 mL TC-100 medium containing 10% fetal bovine serum, 50 µg/ml gentamicin, and substrates for the metabolic reaction. Whole samples (medium and organ) were homogenized and extracted by equal volumes of acetone followed by evaporation. Extracted samples were dissolved in 50 mM NaOAc buffer and treated with beta-glucosidase to measure the fluorescence of metabolized 7-ethoxycoumarin[6]. […] Samples for HPLC were dissolved in 50% methanol. HPLC analysis was performed using a PEGASIL ODS SP column (φ4.5 mm × 250 mm) with isocratic elution at a flow rate of 1 ml/min.

cytochrome P450 [6] = test: Metabolism of luciferin derivatives in cultured silkworm midgut (P450-Glo, luminometer); assay type: in vitro ADME, Bombyx mori (silkworm); details: silkworm midgut incubated with luciferin substrate at 30 °C
cytochrome P450 [7] = test: Metabolism of luciferin-ME by microsomal fractions from the silkworm midgut; assay type: biochemical, Bombyx mori (silkworm); details: Lineweaver-Burk plot
Procedure: Silkworms were immersed in buffer (10 mM HEPES/NaOH, 0.9% NaCl, pH7.9), and organs were isolated and homogenized in a buffer (100 mM sodium phosphate, 1 mM EDTA, 2 mM benzamidine, 10% glycerol) by a glass-Teflon homogenizer. The tissue homogenates were centrifuged at 9000 × g for 10 min at 4 °C. The supernatant was further centrifuged at 49,000 rpm for 30 min at 4 °C. The precipitate was suspended in buffer (100 mM sodium phosphate, 1 mM EDTA, 2 mM benzamidine, 10% glycerol) and frozen at −80 °C after flash-freezing with liquid nitrogen until use.
Microsomes and substrates were suspended in final 0.25 ml buffer comprising 0.1 M sodium phosphate buffer (pH 7.5) and 0.1 mM EDTA, and pre-incubated for 5 min at 30 °C. A cytochrome P450 reaction was initiated by adding a NADPH-generating system containing 3.3 mM glucose-6-phosphate, 1.25 mM NADP, 3.3 mM MgCl2, and 0.25 U glucose-6-phosphate dehydrogenase as a final concentration.
Microsome fractions were prepared from the silkworm midgut, and incubated with luciferin-ME for 5 min at 30°C. The reactions were initiated by the addition of an NADPH-regeneration system. Production of luciferin was determined using a luminometer. (a) Titration of luciferin-ME. (b) Lineweaver Burk plot made from the titration curve.

[8] = Pharmacokinetics of antibiotics in silkworm hemolymph after injection (HPLC); details: for HPLC peak area in hemolymph: raw data of Fig. 1; for Cltot (total body clearance): silkworm, injection into hemolymph, dose per compound 10-50 mg/kg
Procedure: Antibiotics were injected into silkworm hemolymph and hemolymph was collected by cutting the legs at the indicated time.
Antibiotics dissolved in saline were injected into the hemolymph of 5th instar silkworms using a 1-mL syringe attached to a 27 G needle. Hemolymph was harvested from abdominal appendages by cutting them with scissors at the indicated time-points after administration, and mixed with an equal volume of acetone. Samples were centrifuged at 15,000 rpm for 5 min at 4 °C, and the supernatants were evaporated with a centrifuge evaporator[18]. The dried materials were dissolved in 50% methanol and filtrated through a 0.45-µm filter. […] The amount of antibiotics in the sample was quantified from the peak area of the chromatogram.

[9] = parameters: method as in PMID 3210270; details: sheep, dose 10 mg/kg; cited from earlier work
[10] = rabbit, dose 10 mg/kg; cited from earlier work
[11] = read-out: MIC with 10% hemolymph (B), with 10% silkworm hemolymph
[12] = without silkworm hemolymph, read-out: MIC without hemolymph (A)

**Q.** For `Clc1ccccc1C(c1ccccc1)(c1ccccc1)n1ccnc1` [Clotrimazole], which fraction unbound at 10 min, 10 µM (in vitro) is on record?
**A.** < 0.01

**Q.** What about the ED50 (Candida albicans [1]) of the same molecule?
**A.** > 10 mg/kg

**Q.** What about the MIC (Candida albicans [2]; [11]) of the same molecule?
**A.** 1.3 µg/mL (≈ 3.77 µM)

**Q.** And the MIC (Candida albicans [2]; [12])?
**A.** 0.04 µg/mL (≈ 0.116 µM)

**Q.** With `CC(=O)N1CCN(c2ccc(OCC3COC(Cn4ccnc4)(c4ccc(Cl)cc4Cl)O3)cc2)CC1` (stereo not drawn) [Ketoconazole] as the molecule, how does the “Protein binding (%) mammal” value [3] read?
**A.** 99%

**Q.** What about the fraction unbound at 10 min, 10 µM [4] of the same molecule?
**A.** < 0.01

**Q.** And the “Protein-binding capacity in silkworm hemolymph (in words)” value ([4]; silkworm hemolymph)?
**A.** high protein-binding capacities in silkworm hemolymph

**Q.** And the ED50 (Candida albicans [1])?
**A.** > 10 mg/kg

**Q.** What about the MIC (Candida albicans [2]; [11]) of the same molecule?
**A.** 1.3 µg/mL (≈ 2.45 µM)

**Q.** What about the MIC (Candida albicans [2]; [12]) of the same molecule?
**A.** 0.04 µg/mL (≈ 0.0753 µM)

**Q.** What about the “Metabolism in the silkworm midgut (in words)” value (cytochrome P450 [5]; in vitro organ culture, up to 20 h incubation) of the same molecule?
**A.** metabolized in the silkworm midgut

**Q.** And the “HPLC peak area of substrate, Sample 1” value (cytochrome P450 [5]; 0 h)?
**A.** 250139

**Q.** What about the “HPLC peak area of substrate, Sample 2” value (cytochrome P450 [5]; 0 h) of the same molecule?
**A.** 234783

**Q.** And the “HPLC peak area of substrate, Sample 1” value (cytochrome P450 [5]; 1 h)?
**A.** 277669

**Q.** What about the “HPLC peak area of substrate, Sample 2” value (cytochrome P450 [5]; 1 h) of the same molecule?
**A.** 251170

**Q.** What about the “HPLC peak area of substrate, Sample 1” value (cytochrome P450 [5]; 4 h) of the same molecule?
**A.** 205212

**Q.** What about the “HPLC peak area of substrate, Sample 2” value (cytochrome P450 [5]; 4 h) of the same molecule?
**A.** 213216

**Q.** And the “HPLC peak area of substrate, Sample 1” value (cytochrome P450 [5]; 20 h)?
**A.** 217123

**Q.** And the “HPLC peak area of substrate, Sample 2” value (cytochrome P450 [5]; 20 h)?
**A.** 164912

**Q.** With `COc1ccc2nc(C3=NC(C(=O)O)CS3)sc2c1` (stereo not drawn) [Luciferin-ME] as the molecule, how does the “Production of luciferin (RFU/organ)” value (cytochrome P450 [6]) read?
**A.** 58,500 RFU/organ

**Q.** And the Km (cytochrome P450 [7])?
**A.** 7.8 µM

**Q.** And the Vmax (cytochrome P450 [7])?
**A.** 3.0 pmol/min/mg protein

**Q.** Which “HPLC peak area in hemolymph” value ([8]; 1 min after injection) does the source give for `CO[C@H]1/C=C/O[C@@]2(C)Oc3c(C)c(O)c4c(O)c(c(/C=N/N5CCN(C)CC5)c(O)c4c3C2=O)NC(=O)/C(C)=C\C=C\[C@H](C)[C@H](O)[C@@H](C)[C@@H](O)[C@@H](C)[C@H](OC(C)=O)[C@@H]1C` [Rifampicin] here?
**A.** 1080705

**Q.** What about the “HPLC peak area in hemolymph” value ([8]; 10 min after injection) of the same molecule?
**A.** 246911

**Q.** And the “HPLC peak area in hemolymph” value ([8]; 30 min after injection)?
**A.** 125859

**Q.** What about the “HPLC peak area in hemolymph” value ([8]; 45 min after injection) of the same molecule?
**A.** 103195

**Q.** What about the “HPLC peak area in hemolymph” value ([8]; 75 min after injection) of the same molecule?
**A.** 64446

**Q.** What about the “HPLC peak area in hemolymph” value ([8]; 90 min after injection) of the same molecule?
**A.** 59307

**Q.** What about the “HPLC peak area in hemolymph” value ([8]; 150 min after injection) of the same molecule?
**A.** 20209

**Q.** What about the “HPLC peak area in hemolymph” value ([8]; 180 min after injection) of the same molecule?
**A.** 11026

**Q.** And the “HPLC peak area in hemolymph” value ([8]; 240 min after injection)?
**A.** 4977

**Q.** And the “HPLC peak area in hemolymph” value ([8]; 360 min after injection)?
**A.** 2816

**Q.** What about the “Time-course of the decrease in concentration in hemolymph (in words)” value ([8]; in vivo) of the same molecule?
**A.** biphasic

**Q.** What about the “Difference in total clearance between silkworm and mammal” value ([8]; silkworm (Bombyx mori), in vivo) of the same molecule?
**A.** 10 fold

**Q.** And the “Cltot (total body clearance)” value ([8]; two-compartment model)?
**A.** 2.11 mL/g/h

**Q.** What about the Cltot [9] of the same molecule?
**A.** 0.31 mL/g/h

**Q.** What about the Vdss [9] of the same molecule?
**A.** 1.3 mL/g

**Q.** Which “HPLC peak area in hemolymph” value ([8]; 0.1 min after injection) does the source give for `CN(C)[C@@H]1C(O)=C(C(N)=O)C(=O)[C@@]2(O)C(O)=C3C(=O)c4c(O)cccc4[C@@](C)(O)[C@H]3C[C@@H]12` [Tetracycline] here?
**A.** 10505876

**Q.** What about the “HPLC peak area in hemolymph” value ([8]; 1 min after injection) of the same molecule?
**A.** 8079061

**Q.** And the “HPLC peak area in hemolymph” value ([8]; 5 min after injection)?
**A.** 4188656

**Q.** And the “HPLC peak area in hemolymph” value ([8]; 10 min after injection)?
**A.** 3076056

**Q.** What about the “HPLC peak area in hemolymph” value ([8]; 20 min after injection) of the same molecule?
**A.** 2727973

**Q.** And the “HPLC peak area in hemolymph” value ([8]; 30 min after injection)?
**A.** 1928231

**Q.** What about the “HPLC peak area in hemolymph” value ([8]; 60 min after injection) of the same molecule?
**A.** 2239912

**Q.** And the “HPLC peak area in hemolymph” value ([8]; 90 min after injection)?
**A.** 1941121

**Q.** And the “HPLC peak area in hemolymph” value ([8]; 120 min after injection)?
**A.** 1803643

**Q.** And the “HPLC peak area in hemolymph” value ([8]; 180 min after injection)?
**A.** 1414738

**Q.** What about the “HPLC peak area in hemolymph” value ([8]; 240 min after injection) of the same molecule?
**A.** 1202608

**Q.** What about the “Time-course of the decrease in concentration in hemolymph (in words)” value ([8]; after administration into hemolymph, alpha and beta phase, two-compartment model) of the same molecule?
**A.** biphasic

**Q.** What about the “Cltot (total body clearance)” value ([8]; two-compartment model) of the same molecule?
**A.** 0.07 mL/g/h

**Q.** And the Cltot [10]?
**A.** 0.35 mL/g/h
